These results are taken from patent US20220378780A1, “PHARMACEUTICAL COMPOSITIONS COMPRISING POH DERIVATIVES” (NeOnc Technologies, Inc., priority 2019, published 2022).

As usually defined, the pIC50 is the IC50 on a negative log10 scale, so that one unit is a factor of ten.

Series [1] has as its system U87 human glioma cells. The series is described as follows: MTT assay, rolipram vs POH-Rolipram, U87. The format is cell-based. To be noted: U-87 cells, 48 hours. As to the method:
(§1) To compare the cytotoxicity of Rolipram POH Carbamate (POH-Rolipram) (e.g., synthesized by the method in Example 5) with rolipram, a […] inducing differentiation and apoptosis in glioma cells, A172, U87, U251 and LN229 human glioma cells were treated with either POH-Rolipram or rolipram for 48 hours. […] In the presence of POH-rolipram, IC50 is achieved at concentrations as low as 50 uM. […] IC50 is not met at 1000 uM. […] POH-rolipram achieves IC50 at 50 uM, with almost 100% cytoxicity at 100 uM. […] On the other hand, IC50 for POH-rolipram is achieved at 100 uM, with almost 100% cytotoxicity at […].
On the technique in general: Tetrazolium assays rely on reduction of a dye to a coloured formazan, in cell work by metabolically active cells.

For series [2], the system named is U251 human glioma cells. The series is described as follows: MTT assay, rolipram vs POH-Rolipram, U251. The format is cell-based. To be noted: for pIC50: 48 hours, MTT. As to the method:
as §1

Series [3] relates to LN229 human glioma cells. The series is described as follows: MTT assay, rolipram vs POH-Rolipram, LN229. The format is cell-based. Conditions: for pIC50: MTT. The procedure: as §1
In series [4] the test system is A172 human glioma cells. Put plainly: MTT assay, rolipram vs POH-Rolipram, A172. It is filed as cell-based. To be noted: A-172 cells, 48 hours. The procedure:
as §1

Series [5] relates to c-myc, cyclin D1, activated caspase-3 and cleaved PARP-1 in MyLa cells. The series is described as follows: Western blot of marker proteins with anti-oxidants or H2O2. It is filed as cell-based, human. Conditions: for effect of anti-oxidant on NEO212-induced marker changes: 200 and 500 μM AA or 100 and 300 μM b-ME before 80 μM NEO212, 48 hours. From the text:
2. Material and methods 2.1. […] 2.2. […] 2.3. […] 2.4.
Background: A western blot detects proteins with antibodies after separation by electrophoresis.

Series [6] has as its system subcutaneous U-87 gliomas. Put plainly: Nude mouse subcutaneous glioma model, tumor growth inhibition. The format is in vivo, nude mice. To be noted: local application via Q-tip, 1 cc/application/day, 8 weeks; growth over 60 days. As to the method: Inhibition of tumor growth by butyryl-POH was studied in a nude mouse subcutaneous glioma model. Mice were injected with U-87 glioma cells (500,000 cells/injection) and allowed to form a palpable nodule over two weeks. Once palpable nodule was formed, the mice were treated with local application of various compounds as indicated in FIGS. 9A and 9B via a Q-tip (1 cc/application/day) over a period of 8 weeks.

The subject of series [7] is HUT102 cells. Put plainly: MTT cell viability assay, HUT102 (Example 15). The format is cell-based, human. Conditions: HUT102, 72 hours. From the text: (§2) 2. Material and methods 2.1. […] 2.2. […] 2.3. […] 2.4. […] 2.5.
Series [8] concerns USC-02 glioma cancer stem cells. Put plainly: MTT cytotoxicity assay, USC-02. Conditions: USC-02; TMZ 0-400 uM, POH 0-2 mM. The format is cell-based. From the text:
(§3) Cancer Lett. 2011 Mar. 28; 302(2):100-8.

In series [9] the test system is USC-04 glioma cancer stem cells. Put plainly: MTT cytotoxicity assay, USC-04. It is filed as cell-based. To be noted: USC-04; TMZ 0-400 uM, POH 0-2 mM.
From the text: as §3

For series [10], the system named is TMZ resistant (U251TR) U251 cells. The series is described as follows: Colony forming assay, TMZ resistant U251TR. The format is cell-based, human. As to the method:
(§4) Colony forming assays were carried out after cells were treated with TMZ alone, POH alone, and the TMZ-POH conjugate. […] Cancer Lett. 2011 Mar. 28; 302(2):100-8.

Series [11] relates to glioblastoma, breast cancer, or melanoma cell lines. To be noted: various in vitro cytotoxicity assays; cited from earlier work.
For series [12], the system named is TMZ sensitive (U251) cells. The series is described as follows: Colony forming assay, TMZ sensitive U251. The format is cell-based, human. The procedure: as §4
The test system of series [13] is U87, A172 and U251 human glioma cells. The series is described as follows: MTT cytotoxicity assay on human malignant glioma cells. The format is cell-based. The text has this: In vitro efficacy of the present composition can be determined using methods well known in the art. For example, the cytotoxicity of the present monoterpene (or sesquiterpene) and/or the therapeutic agents may be studied by MTT [3-(4,5-dimethylthiazol-2-yl)-2,5-diphenyl tetrazolium bromide] cytotoxicity assay. MTT assay is based on the principle of uptake of MTT, a tetrazolium salt, by metabolically active cells where it is metabolized into a blue colored formazon product, which can be read spectrometrically. J. of Immunological Methods 65: 55 63, 1983. The cytotoxicity of the present monoterpene (or sesquiterpene) derivative and/or the therapeutic agents may be studied by colony formation assay. Functional assays for inhibition of VEGF secretion and IL-8 secretion may be performed via ELISA. Cell cycle block by the present monoterpene (or sesquiterpene) derivative and/or the therapeutic agents may be studied by standard propidium iodide (PI) staining and flow cytometry. Invasion inhibition may be studied by Boyden chambers. In this assay a layer of reconstituted basement membrane, Matrigel, is coated onto chemotaxis filters and acts as a barrier to the migration of cells in the Boyden chambers. Only cells with invasive capacity can cross the Matrigel barrier. Other assays include, but are not limited to cell viability assays, apoptosis assays, and morphological assays.
Then U87, A172 and U251 cells were treated with dimethyl celecoxib bisPOH carbamate (POH-DMC) (e.g., synthesized by the method in Example 1), and the MTT cytotoxicity assays performed (FIG. 2).
Then TMZ-resistant glioma cell lines U87, A172 and U251 cells were treated with temozolomide POH carbamate (POH-TMZ) (e.g., synthesized by the method in Example 3).

For series [14], the system named is HUT78 cells. The series is described as follows: MTT cell viability assay, HUT78 (Example 15).
Description: Pharmacological agents—NEO212 was dissolved in DMSO at 100 mM. TMZ was purchased from Sigma Aldrich (St. Louis, Mo.) and dissolved in DMSO (Santa Cruz Biotechnology, Dallas, Tex.) to a concentration of 50 mM. POH was purchased from Sigma-Aldrich and diluted in DMSO to 100 mM. […] Stock solutions of all drugs were stored at −20° C. Staurosporine (STSP) was purchased from Selleck Chemicals (Houston, Tex.), stored at 4° C. protected from light, and dissolved in DMSO before use. Ascorbic acid (AA) and beta-mercaptoethanol (b-ME) (Sigma Aldrich) were prepared fresh before use. Crystalline AA was dissolved in phosphate-buffered saline (PBS) to 25 mM; b-ME was diluted in medium to 25 mM. […] Cell lines—Three different human CTLC cell lines were used. […] Both media also contained 100 U/mL penicillin and 0.1 mg/mL streptomycin. Penicillin, streptomycin, and RPMI (prepared with raw materials from Cellgro/MediaTech, Manassas, Va.) were provided by the Cell Culture Core lab of the USC/Norris Comprehensive Cancer Center. […] Cells were kept in a humidified incubator at 37° C. and a 5% CO2 atmosphere. FBS was obtained from Omega Scientific (Tarzana, Calif.) and from X&Y Cell Culture (Kansas City, Mo.). […] MTT assay—Methylthiazoletetrazolium (MTT) assays were performed as follows. Cells were seeded into 96-well plates in a volume of 50 μL per well at 3.0-5.0×10^5 cells/mL. An additional 50 μL of medium containing various concentrations of drug (or vehicle) was added and the cells were incubated for different lengths of time. This was followed by the addition of 10 μL thiazolyl-blue tetrazolium (i.e., MTT; Sigma Aldrich) from a stock solution of 5 mg/mL in phosphate-buffered saline (PBS). Cells were returned to the incubator for 4 hours. Thereafter, the reaction was stopped and the cells were lysed by the addition of 100 μL solubilization solution (10% sodium dodecyl sulfate in 0.01 M hydrochloric acid). The 96-well plate was left in the cell culture incubator over night for complete solubilization of the MTT crystals, and the optical density (OD) of each well was determined the next day in an ELISA plate reader at 560 nm. The background value (=OD of control wells containing medium without cells+MTT+solubilization solution) was subtracted from all measured values. In individual experiments, each treatment condition was set up in quadruplicate, and each experiment was repeated several times independently. […] Cell proliferation analysis—Cell proliferation was assessed by counting cells over time. Independent cell cultures were exposed to different concentrations of NEO212. At different times, aliquots of cells were removed, mixed with Trypan blue, and counted in a hemocytometer. Blue cells were considered dead, whereas unstained cells were counted as live cells. […] Fluorescence-activated cell sorting (FACS) analysis—Cells were seeded in 6-well tissue culture plates at 2×10^5 cells/mL, followed by drug treatment. After 72 hours, cells were collected, washed twice with PBS, transferred to a microcentrifuge tube, and suspended in 200 μL of 1× binding buffer solution, which was made fresh from 10x binding buffer (0.2 μm sterile-filtered 0.1 M HEPES, pH 7.4; 1.4 M NaCl; 25 mM CaCl2)). Then 1 μL of a 1 mg/mL 7-amino-actinomycin D (7-AAD) solution (Thermo Fisher Scientific, Waltham, Mass.) was added. After 20 minutes of incubation on ice, cell fluorescence was analyzed on a FACSAria Flow Cytometer (Becton Dickinson Biosciences Ltd., Franklin Lakes, N.J.).
Series [15] concerns HuT 78 cells. The series is described as follows: MTT assay on HuT 78 cells (Example 14). Conditions: HuT 78, 72 hours. The procedure:
HuT 78 cells are cutaneous T lymphocytes derived from a patient with Sézary syndrome.
HuT 78 cells were treated in vitro with (i) temozolomide (50, 100, 250 μM), (ii) POH-TMZ conjugate (“NEO212”, 25, 50, 100 μM), (iii) NEO412 which is the triple conjugate of temozolomide (TMZ), perillyl alcohol (POH), and linoleic acid (25, 50, 100, 250 μM), or (iv) vehicle alone. Seventy-two hours after the addition of drugs or vehicle, cell viability was determined by standard MTT (methylthiazoletetrazolium) assay.

Series [16] relates to MyLa cells. The series is described as follows: MTT cell viability assay, MyLa (Example 15). The format is cell-based, human. To be noted: Homo sapiens, 72 hours.
From the text: as §2

For series [17] the following is noted: cancer patients; cited from earlier work.
In series [18] the test system is HUT78 cells. The series is described as follows: FACS analysis of cell death with 7-AAD. The format is cell-based, human. Conditions: HUT78, highest concentration 300, 72 hours.
From the text: as §2
On the technique in general: A flow cytometer gives signals particle by particle.

pIC50: −log10 of the molar value.

As for `COc1ccc(C2CNC(=O)C2)cc1OC1CCCC1` (stereo not shown) [rolipram, reference compound], the negative-log IC50 (pIC50) in series [1] (Homo sapiens, U-87 MG) was under 3.00; in [2] (Homo sapiens, U-251, U251 cells) it was 3.77; in [3] (Homo sapiens, LN-229, 48 hours), under 4.00; in series [4] (Homo sapiens), about 3.00. In addition, in [2] (human, 48 h), the plateau cytotoxicity turned out to be 60%.
On to `OCCS` [b-ME, beta-mercaptoethanol], for which the “effect of anti-oxidant on NEO212-induced marker changes” value in [5] is reported as “prevented the anticancer impact of NEO212”.
For the molecule `C=C(C)C1CC=C(COC(=O)CCC)CC1` (stereo not shown) [Butyryl-POH], the “inhibition of tumor growth” value in series [6] was “greatest inhibition of tumor growth”.
For the molecule `C=C(C)C1CC=C(COC(=O)N2CC(c3ccc(OC)c(OC4CCCC4)c3)CC2=O)CC1` (stereo not shown) [POH-rolipram, 4-(3-cyclopentyloxy-4-methoxyphenyl)-2-oxo-pyrrolidine-1-carboxylic acid 4-isopropenyl cyclohex-1-enylmethyl ester], the negative logarithm of the IC50 (pIC50) in [1] was 3.74; in series [2] (U251 cells), 4.30; in series [3] (48 hours), 4.00; in series [4], 4.30. Moreover, the cytotoxicity is listed as about 100% in series [2] (U251 cells, at 100 uM) and about 100% in series [3] (at 10 uM).
For the molecule `O=C1O[C@H]([C@@H](O)CO)C(O)=C1O` [AA, ascorbic acid], the “effect of anti-oxidant on NEO212-induced marker changes” value in series [5] is given as “prevented the anticancer impact of NEO212”.
In the case of `C=C(C)[C@@H]1CC=C(CO)CC1` [POH, perillyl alcohol, reference compound], the “activity on viability in MTT assay” value in series [7] (up to 300 μM) was “very minimal activity”. Further, the “cytotoxicity in MTT assay” value in [8] and in series [9] was “demonstrated cytotoxicity” in each case. Moreover, the “cytotoxicity in colony forming assay” value in [10] and in series [12] was “demonstrated cytotoxicity” throughout. In addition, the negative-log IC50 (pIC50) in series [11] is 2.74 to 3.15.
Take `OO` [H2O2, hydrogen peroxide]: the “effect on proliferation and apoptosis markers” value in series [5] (200 μM H2O2, 48 hours) was “clear down-regulation of c-myc and cyclin D1 proteins, along with strong activation of caspase-3 and cleavage of PARP-1”.
Regarding `C=C(C)C1CC=C(COC(=O)N(C(=O)OCC2=CCC(C(=C)C)CC2)S(=O)(=O)c2ccc(-n3nc(C(F)(F)F)cc3-c3cc(C)ccc3C)cc2)CC1` (stereo not shown) [POH-DMC], the “cytotoxicity in MTT assay” value in series [13] was “much better cytotoxicity than DMC alone”.
For `Cn1nnc2c(C(N)=O)ncn2c1=O` [TMZ, temozolomide, reference compound], in [14] (HUT78, 100 μM), the reduction of viability entry is recorded as “about 30%”. Further, the negative-log IC50 (pIC50) in series [14] (HUT78, 72 hours) is under 3.52; in series [7] (Homo sapiens, HuT-102), 5.10 to 5.22; in series [16] it was under 3.52. Moreover, the “cytotoxicity in MTT assay” value is listed as “minimal cytotoxicity” in series [13], “did not induce significant cytotoxicity” in series [8] and “did not induce significant cytotoxicity” in [9]. The “cytotoxic effect on MF cells in MTT assay” value in series [15] is recorded as “does not show much cytotoxicity”. The “cytotoxicity in colony forming assay” value in [10] is on record as “minimal cytotoxicity”; in series [12] it was “demonstrated cytotoxicity”. The peak plasma levels in series [17] was 50 to 70 µM. This molecule registered a cell death in [18] of 26%.
